Assay results reported in patent US20210169903A1, “PHARMACEUTICAL COMPOSITIONS AND METHODS” (Tyme, Inc., priority 2019, published 2021).

System: established subcutaneous CT26 murine colon carcinoma
Test: Anti-tumor activity of components of the transdermal formulation, intratumoral, tumor volume (Example 3)
Assay type: in vivo, female Balb/c mice
Parameters: TES Group Median / DT Group Median / TGD: unit not given here
Settings: 50 μL intratumorally daily Day 11-17; for TGD: tumor growth delay versus Vehicle (0.0)
Description: A study is conducted to evaluate the anti-tumor activity of the components of the transdermal formulation intratumorally against established subcutaneous CT26 murine colon carcinoma in female Balb/c mice.
Vehicle control is saline solution. 3-surfactant mixture is a mixture of Nonaethylene glycol monododecyl ether, 1-Methyl-2-pyrrolidinone, and Linoleic Acid.
Tumor cells are implanted subcutaneously (Day 0). Once enrollment criteria are achieved, animals are distributed into treatment groups such that the mean tumor burden in each group is within 10% of the overall mean. Mice are dosed individually by body weight (50 μL fixed/injection intratumorally) on the day of treatment as described above. Animals are dose daily for 7 days beginning on Day 11 and ending on Day 17. Animals are held for tumor growth delay endpoint/tumor growth inhibition endpoint and complete regression/partial regression/tumor free survivor determination.

[1] = 2nd time-point column (day not given)
[2] = 4th time-point column (day not given)
[3] = 5th time-point column (day not given)
[4] = 6th time-point column (day not given)
[5] = 7th time-point column (day not given)

Structure (SMILES)	Mean Tumor Volume [1] [mm^3]	Median Tumor Volume [1] [mm^3]	Mean Tumor Volume (3rd time-point (day not given)) [mm^3]	Median Tumor Volume (3rd time-point (day not given)) [mm^3]	Mean Tumor Volume [2] [mm^3]	Median Tumor Volume [2] [mm^3]	Mean Tumor Volume [3] [mm^3]	Median Tumor Volume [3] [mm^3]	Mean Tumor Volume [4] [mm^3]	Median Tumor Volume [4] [mm^3]	Mean Tumor Volume [5] [mm^3]	Median Tumor Volume [5] [mm^3]	DT Group Median	TES Group Median	Mean Tumor Volume (day not given) [mm^3]	Median Tumor Volume (day not given) [mm^3]	TGD
CN1CCCC1=O [1-Methyl-2-pyrrolidinone anhydrous, 1-Methyl-2-pyrrolidinone]	278	295	428	426	688	624	1008	918	1216	1183	1910	1812	4.0	18.8	134	141	0.8
CCCCC/C=C\C/C=C\CCCCCCCC(=O)O [Linoleic Acid]	283	270	481	411	777	700	1291	1030	1118	1152	2035	2250	3.5	18.7	132	138	0.6
CCCCCCCCCCCCOCCOCCOCCOCCOCCOCCOCCOCCOCCO [Nonaethylene glycol monododecyl ether]	236	246	416	368	761	819	996	988	1364	1311	2017	2009	3.7	17.7	126	125	−0.4
